From patent US20210254056A1, “IDENTIFICATION AND TARGETED MODULATION OF GENE SIGNALING NETWORKS” (CAMP4 THERAPEUTICS CORPORATION, priority 2017, published 2021)

Test system: hepatocytes
Experiment: RNA-seq of hepatocytes treated with Phase III failure compounds
Experimental: RNA-seq was performed to determine the effects of the compounds on hepatocytes.
Significance was determined by the criteria of FPKM≥0.5, a log 2(fold-change)≥1, and a […].

## C=CCNC1=C2C[C@@H](C)C[C@H](OC)[C@H](O)[C@@H](C)/C=C(\C)[C@H](OC(N)=O)[C@@H](OC)/C=C\C=C(/C)C(=O)NC(=CC1=O)C2=O [17-MG (Tanespimycin), Tanespimycin]
  RNA-seq results, CYP2B6 expression: 1.32
  RNA-seq results, CYP2C19 expression: 0.34
  RNA-seq results, CYP2D6 expression: 0.06
  RNA-seq results, CYP3A4 expression: 2.50
  RNA-seq results, CYP7B1 expression: 0.43
  RNA-seq results, CYP39A1 expression: 1.38
  RNA-seq results: CYP2B6 expression: 0.2
  RNA-seq results: CYP2C19 expression: −1.4
  RNA-seq results: CYP2D6 expression: 0.27
  RNA-seq results: CYP3A4 expression: 0.96
  RNA-seq results: CYP7B1 expression: −1.05
  RNA-seq results: CYP39A1 expression: −0.62
Gene A1BG, hepatocytes
  RNA-seq results: A1BG expression: −0.10
Gene AGTR1, hepatocytes
  RNA-seq results: AGTR1 expression: −0.03
Gene AGXT, hepatocytes
  RNA-seq results: AGXT expression: 0.27
Gene AHI1, hepatocytes
  RNA-seq results: AHI1 expression: 0.39
Gene AMPD3, hepatocytes
  RNA-seq results: AMPD3 expression: 1.15
Gene AMT, hepatocytes
  RNA-seq results: AMT expression: 0.31
Gene ANGPTL3, hepatocytes
  RNA-seq results: ANGPTL3 expression: 0.06
Gene ANKS4B, hepatocytes
  RNA-seq results: ANKS4B expression: 1.12
Gene ANKS6, hepatocytes
  RNA-seq results: ANKS6 expression: −0.15
Gene ANPEP, hepatocytes
  RNA-seq results: ANPEP expression: −0.06
Gene AOC2, hepatocytes
  RNA-seq results: AOC2 expression: 0.24
Gene APOA2, hepatocytes
  RNA-seq results: APOA2 expression: −0.64
Gene APOA5, hepatocytes
  RNA-seq results: APOA5 expression: 0.07
Gene APOB, hepatocytes
  RNA-seq results: APOB expression: 2.13
Gene COG5, hepatocytes
  RNA-seq results: COG5 expression: −1.94
Gene COG6, hepatocytes
  RNA-seq results: COG6 expression: −0.28
Gene COL1A1, hepatocytes
  RNA-seq results: COL1A1 expression: 0.45
Gene COX6A1, hepatocytes
  RNA-seq results: COX6A1 expression: 0.27
Gene CP, hepatocytes
  RNA-seq results: CP expression: 0.19
Gene CPS1, hepatocytes
  RNA-seq results: CPS1 expression: −0.79
Gene CPT1A, hepatocytes
  RNA-seq results: CPT1A expression: −1.18
Gene CPT2, hepatocytes
  RNA-seq results: CPT2 expression: 1.3
Gene CROT, hepatocytes
  RNA-seq results: CROT expression: 0.23
Gene CSPP1, hepatocytes
  RNA-seq results: CSPP1 expression: −0.45
Gene CTC1, hepatocytes
  RNA-seq results: CTC1 expression: 0.65
Gene CTDSP2, hepatocytes
  RNA-seq results: CTDSP2 expression: −0.36
Gene CTH, hepatocytes
  RNA-seq results: CTH expression: 1.32
Gene CTNS, hepatocytes
  RNA-seq results: CTNS expression: −0.39
Gene CTSF, hepatocytes
  RNA-seq results: CTSF expression: 0.01
Gene CTSK, hepatocytes
  RNA-seq results: CTSK expression: 1.01
Gene CYB5A, hepatocytes
  RNA-seq results: CYB5A expression: −0.54
Gene CYB5R3, hepatocytes
  RNA-seq results: CYB5R3 expression: −0.57
Gene CYP27A1, hepatocytes
  RNA-seq results: CYP27A1 expression: −0.12
Gene DAO, hepatocytes
  RNA-seq results: DAO expression: −0.79
Gene DBT, hepatocytes
  RNA-seq results: DBT expression: −0.27
Gene DCDC2, hepatocytes
  RNA-seq results: DCDC2 expression: −2.14
Gene DCXR, hepatocytes
  RNA-seq results: DCXR expression: −0.21
Gene FABP1, hepatocytes
  RNA-seq results: FABP1 expression: −0.95
Gene FADD, hepatocytes
  RNA-seq results: FADD expression: −0.41
Gene FAM111A, hepatocytes
  RNA-seq results: FAM111A expression: 0.93
Gene FAM111B, hepatocytes
  RNA-seq results: FAM111B expression: −1.24
Gene FAN1, hepatocytes
  RNA-seq results: FAN1 expression: 0.32
Gene FARS2, hepatocytes
  RNA-seq results: FARS2 expression: −3
Gene FASLG, hepatocytes
  RNA-seq results: FASLG expression: −1.15
Gene FGA, hepatocytes
  RNA-seq results: FGA expression: 0.46
Gene FGD1, hepatocytes
  RNA-seq results: FGD1 expression: −1.37
Gene FGFR2, hepatocytes
  RNA-seq results: FGFR2 expression: −2.48
Gene FIG4, hepatocytes
  RNA-seq results: FIG4 expression: −0.69
Gene FIS1, hepatocytes
  RNA-seq results: FIS1 expression: −0.22
Gene FTCD, hepatocytes
  RNA-seq results: FTCD expression: −1.66
Gene FTH1, hepatocytes
  RNA-seq results: FTH1 expression: −0.49
Gene FUCA1, hepatocytes
  RNA-seq results: FUCA1 expression: 0.43
Gene FXN, hepatocytes
  RNA-seq results: FXN expression: −1.04
Gene G6PC3, hepatocytes
  RNA-seq results: G6PC3 expression: −0.38
Gene G6PC, hepatocytes
  RNA-seq results: G6PC expression: −0.03
Gene G6PD, hepatocytes
  RNA-seq results: G6PD expression: 1.7
Gene GALK1, hepatocytes
  RNA-seq results: GALK1 expression: −0.7
Gene GALK2, hepatocytes
  RNA-seq results: GALK2 expression: −1.47
Gene GALT, hepatocytes
  RNA-seq results: GALT expression: −0.43
Gene GATA6, hepatocytes
  RNA-seq results: GATA6 expression: −0.77
Gene GATM, hepatocytes
  RNA-seq results: GATM expression: −1.11
Gene GBA, hepatocytes
  RNA-seq results: GBA expression: −0.38
Gene GBE1, hepatocytes
  RNA-seq results: GBE1 expression: −2.25
Gene GCH1, hepatocytes
  RNA-seq results: GCH1 expression: 0.43
Gene GCKR, hepatocytes
  RNA-seq results: GCKR expression: −0.16
Gene GCLC, hepatocytes
  RNA-seq results: GCLC expression: −0.18
Gene GOSH, hepatocytes
  RNA-seq results: GOSH expression: −1.49
Gene RRM2B, hepatocytes
  RNA-seq results: RRM2B: 1.19
Gene RSAD1, hepatocytes
  RNA-seq results: RSAD1: −0.23
Gene SAMHD1, hepatocytes
  RNA-seq results: SAMHD1: −0.05
Gene SC5D, hepatocytes
  RNA-seq results: SC5D: 1.56
Gene SCARB1, hepatocytes
  RNA-seq results: SCARB1: −0.35
Gene SCN9A, hepatocytes
  RNA-seq results: SCN9A: −0.22
Gene SDCCAG8, hepatocytes
  RNA-seq results: SDCCAG8: 0.11
Gene SEPN1, hepatocytes
  RNA-seq results: SEPN1: −0.07
Gene SERAC1, hepatocytes
  RNA-seq results: SERAC1: 0.26
Gene SERPINA1, hepatocytes
  RNA-seq results: SERPINA1: −0.05
Gene SERPING1, hepatocytes
  RNA-seq results: SERPING1: 0.28
Gene SERPINI1, hepatocytes
  RNA-seq results: SERPINI1: 0.22
Gene SETBP1, hepatocytes
  RNA-seq results: SETBP1: 0.54
Gene SFXN4, hepatocytes
  RNA-seq results: SFXN4: −0.14
Gene SLC10A1, hepatocytes
  RNA-seq results: SLC10A1: 1.13
Gene SLC10A3, hepatocytes
  RNA-seq results: SLC10A3: −1.25
Gene SLC10A5, hepatocytes
  RNA-seq results: SLC10A5: 2.20
Gene SLC10A7, hepatocytes
  RNA-seq results: SLC10A7: 0.55
Gene SLC11A2, hepatocytes
  RNA-seq results: SLC11A2: 0.65
Gene SLC19A1, hepatocytes
  RNA-seq results: SLC19A1: −0.71
Gene SLC19A2, hepatocytes
  RNA-seq results: SLC19A2: 0.62
Gene SLC19A3, hepatocytes
  RNA-seq results: SLC19A3: 0.68
Gene SLC22A1, hepatocytes
  RNA-seq results: SLC22A1: 0.08
Gene SLC22A5, hepatocytes
  RNA-seq results: SLC22A5: −0.72
Gene SLC25A1, hepatocytes
  RNA-seq results: SLC25A1: −0.29
Gene SLC25A10, hepatocytes
  RNA-seq results: SLC25A10: −0.45
Gene SLC25A12, hepatocytes
  RNA-seq results: SLC25A12: −0.06
Gene SLC25A13, hepatocytes
  RNA-seq results: SLC25A13: 0.72
Gene SLC25A15, hepatocytes
  RNA-seq results: SLC25A15: 0.58
Gene SLC25A19, hepatocytes
  RNA-seq results: SLC25A19: −0.70
Gene SLC25A20, hepatocytes
  RNA-seq results: SLC25A20: −0.52
Gene SLC25A29, hepatocytes
  RNA-seq results: SLC25A29: −1.07
Gene SLC25A32, hepatocytes
  RNA-seq results: SLC25A32: −0.50

## Cc1cc(C)c2c(c1)[C@@H](N(Cc1cc(C(F)(F)F)cc(C(F)(F)F)c1)c1nnn(C)n1)CCCN2C[C@H]1CC[C@H](C(=O)O)CC1 [Evacetrapib]
RNA-seq of Table 36, FPKM≥0.5, log 2(fold-change)≥1, q-value≤0.05
  significant changes in gene expression: not observed to cause any significant changes in gene expression
RNA-seq, p≤0.05, hepatocytes
  significant modulation of expression of any of the genes analyzed: not observed to significantly modulate expression
